Laboratory results reported in doi:10.1101/2025.04.28.650843v1, “The structure of phycobilisome with a bicylindrical core from the cyanobacterium Synechococcus elongatus PCC 7942” (biorxiv, 2025).

Tests used:
Assay in all cases: cryo-EM structure of phycobilisome, […] Å
Type in all cases: binding
ApcE (LCM), αApcE domain = molecular target: T1, ApcE (LCM), αApcE domain (Synechococcus elongatus, UniProt Q31RF9); conditions: covalent, terminal emitter, pH 7.0
T1 construct: gene Synpcc7942_0328; native ApcE with two REP domains in phycobilisome core (trimer 3), glutaraldehyde cross-linked; bilin in N-terminal αApcE domain
T1 sequence (Q31RF9 1-705): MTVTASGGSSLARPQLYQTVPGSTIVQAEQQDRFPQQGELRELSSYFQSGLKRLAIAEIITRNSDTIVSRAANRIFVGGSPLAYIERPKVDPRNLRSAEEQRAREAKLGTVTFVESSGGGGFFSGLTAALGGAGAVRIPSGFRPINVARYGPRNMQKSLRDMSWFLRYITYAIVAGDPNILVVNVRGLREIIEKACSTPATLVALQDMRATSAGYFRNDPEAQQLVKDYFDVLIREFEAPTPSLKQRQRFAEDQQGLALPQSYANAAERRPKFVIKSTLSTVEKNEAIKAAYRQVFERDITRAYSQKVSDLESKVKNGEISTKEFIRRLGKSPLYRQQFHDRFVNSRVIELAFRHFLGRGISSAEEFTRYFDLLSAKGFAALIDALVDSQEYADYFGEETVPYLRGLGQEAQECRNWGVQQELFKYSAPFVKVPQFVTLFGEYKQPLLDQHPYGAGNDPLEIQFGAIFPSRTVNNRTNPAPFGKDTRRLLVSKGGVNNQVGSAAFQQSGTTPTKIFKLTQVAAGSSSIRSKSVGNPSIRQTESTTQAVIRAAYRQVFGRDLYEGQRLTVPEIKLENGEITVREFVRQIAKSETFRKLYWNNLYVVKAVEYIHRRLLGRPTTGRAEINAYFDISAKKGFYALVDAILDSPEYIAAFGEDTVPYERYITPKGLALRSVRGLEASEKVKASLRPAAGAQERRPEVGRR

ApcF = molecular target: T2, ApcF (Synechococcus elongatus, UniProt O50209); conditions: covalent; pH 7.0
T2 construct: native subunit in phycobilisome core, glutaraldehyde cross-linked
T2 sequence (O50209 1-169): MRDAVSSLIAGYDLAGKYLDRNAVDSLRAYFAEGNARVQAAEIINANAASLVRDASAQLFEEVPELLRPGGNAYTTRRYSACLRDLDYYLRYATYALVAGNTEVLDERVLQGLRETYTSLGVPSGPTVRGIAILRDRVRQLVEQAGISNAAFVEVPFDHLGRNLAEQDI

ApcD = molecular target: T3, ApcD (Synechococcus elongatus, UniProt Q31RP7); conditions: covalent; terminal emitter; pH 7.0
T3 construct: gene Synpcc7942_0240; native subunit in phycobilisome core (trimer 4), glutaraldehyde cross-linked
T3 sequence (Q31RP7 1-163): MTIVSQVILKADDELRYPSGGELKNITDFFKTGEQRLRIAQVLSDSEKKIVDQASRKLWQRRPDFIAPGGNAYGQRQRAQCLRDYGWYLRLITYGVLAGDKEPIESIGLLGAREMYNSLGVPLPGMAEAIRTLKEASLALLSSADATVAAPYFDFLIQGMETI

C/C=C1/C(=C/C2=NC(=C\c3[nH]c(/C=C4\NC(=O)C(CC)=C4C)c(C)c3CCC(=O)O)/C(CCC(=O)O)=C2C)NC(=O)[C@@H]1C [phycocyanobilin]
cryo-EM structure of phycobilisome, 2.98 Å (ApcE (LCM), αApcE domain): terminal emitters (ApcD and the α^ApcE domain) are deduced based on the shortest distances
cryo-EM structure of phycobilisome, 2.98 Å (ApcF): Bilins in rods and core are painted the same colors as the corresponding proteins
cryo-EM structure of phycobilisome, 2.98 Å (ApcD): terminal emitters (ApcD and the α^ApcE domain) are deduced based on the shortest distances
